# Source: patent US20080132689A1, “Labile Linkage for Compound Delivery to a Cell” (priority 2003, published 2008)
# Experiments:
# [1] = Measurement of acetal kinetics (rate of acetal hydrolysis in buffered solutions, by absorbance); type: physicochemical
# Description: To illustrate the rate of cleavage of several example ortho carboxy phenol derived acetals, we synthesized the molecules 1-3 (shown in FIG. 2) and measured the rates of acetal hydrolysis for each at pH 5.2-7.3. • Acetal 1. R′, R=alkyl; and R1, R2, R3, R4=hydrogen • Acetal 2. R′, R=alkyl; R1, R4=hydrogen; R2=carboxyl (carbon-containing group); R3=hydroxyl (heteroatom) • Acetal 3. R′=alkyl; R, R2, R3, R4=hydrogen; and R1=carboxyl (carbon-containing group)
# To determine the rate of acetal hydrolysis, compounds 1-3 were added to buffered solutions (pH 7-8 with 5 mM HEPES, or pH 5-7 with 5 mM acetate) at various pH values and the absorbance of the solution was measured as a function of time (λ=302 nm for 1 and 2 and 310 nm for 3). The rate constant was determined by determining the slope of the line derived from plotting ln[1-((A∞-At)/(A∞-AO))] as a function of time t, where A∞ is absorbance after>3 hours of hydrolysis, At is the absorbance at time t, and AO is the initial absorbance. The half-life of the hydrolysis equals ln[2] divided by the rate constant.
# [2] = test system: Hepa mouse hepatoma cells; experiment: DNA transfection with crosslinked pCIluc/DW921 complexes, luciferase expression; type: cell-based; settings: pCIluc 10 μg/mL, DW921 100 μg/mL, 48 h, average of two wells
# Procedure: To a solution of plasmid DNA pCIluc (10 μg/mL, 0.075 mM in phosphate, 2.6 μg/μL pCIluc; prepared according to Danko et al. 1997) in 0.5 mL of 150 mM NaCl and 5 mM TAPS pH 9 was added 100 μg/mL DW921. The complexes were then reacted with glutaraldehyde, periodate oxidized phenyl glucoside (another crosslinker containing a labile bond), or periodate oxidized salicylic galactoside at 1, 2, 4, 8, or 16 μg/mL. The complexes were then added (200 μL) to wells containing Hepa mouse hepatoma cells in Dulbecco's modified Eagle's Media containing 10% fetal bovine serum. The cells were allowed to incubate for 48 h. The cells were then harvested and assayed for luciferase expression as previously reported. The amount of transfection was reported in relative light units and is the average transfection for two separate wells of cells.
smiles,measurement,setting,value
CC(C)CCOC(C)Oc1ccccc1C(=O)O (centres unmarked) [Acetal 1],half-life (minutes) of acetal hydrolysis,[1]; pH 7.3,1.0 min
CC(C)[C@@H]1CC[C@@H](C)C[C@H]1OCOc1c(C(=O)O)cccc1C(=O)O [Acetal 3],half-life (minutes) of acetal hydrolysis,[1]; pH 5.2,0.22 min
same,half-life (minutes) of acetal hydrolysis,[1]; pH 6.5,4.7 min
O=CCCCC=O [glutaraldehyde],Relative Light Units,[2]; 1 μg/mL dialdehyde crosslinker,915 Relative Light Units
same,Relative Light Units,[2]; 2 μg/mL dialdehyde crosslinker,620 Relative Light Units
same,Relative Light Units,[2]; 4 μg/mL dialdehyde crosslinker,"1,400 Relative Light Units"
same,Relative Light Units,[2]; 8 μg/mL dialdehyde crosslinker,590 Relative Light Units
same,Relative Light Units,[2]; 16 μg/mL dialdehyde crosslinker,565 Relative Light Units
